Test results taken from ChEMBL document CHEMBL1134341, “Calculation of the hydrophobicity of platinum drugs” (J Med Chem, 2001).

What was measured:
[1] = Octanol-water partition coefficient (logP) value for platinum compounds; type: physicochemical
[2] = The observed [pt] (mmol/mg protein) value for platinum content in cells; type: ADME

| Substance | logP [1] | Observed [pt] [2] |
| --- | --- | --- |
| AMMONIO(DICHLORO)[DI(PROYLCARBONYLOXY)]PLATINUM(CYCLOHEXYL)AMMONIUM | 0.47 | 13.5 mM (mg of protein)-1 |
| CISPLATIN | -2.36 | 1 mM (mg of protein)-1 |
| AMMONIO(DICHLORO)[DI(BUTYLCARBONYLOXY)]PLATINUM(CYCLOHEXYL)AMMONIUM | 0.86 | 17 mM (mg of protein)-1 |
| AMMONIO(DICHLORO)PLATINUM(CYCLOHEXYL)AMMONIUM | -0.87 | 1.9 mM (mg of protein)-1 |
| AMMONIO(DICHLORO)[DI(METHYLCARBONYLOXY)]PLATINUM(CYCLOHEXYL)AMMONIUM | -0.47 | 3.5 mM (mg of protein)-1 |
